Reference: patent US20220289746A1, “PYRROLIDINE DERIVATIVES” (Hoffmann-La Roche Inc., priority 2019, published 2022)

Key:
liver cells = test: Determination of the in vitro clearance in liver cells; assay type: in vitro ADME; conditions: for clearance values reduced compared to clearance values of examples P1, P2 and P55: in vitro clearance, relative to reference compounds; for Clearance: in vitro intrinsic clearance, liver cells (hepatocyte cultures), 37° C.
Experimental: Determination of the In Vitro Clearance
Incubations of a test compound at different concentrations were performed in 96 well plates containing liver cells (5% CO2 atmosphere and 37° C.). At defined time points, either cell medium was taken or the whole well was quenched with acetonitrile containing an internal standard. Samples are then cooled and centrifuged before analysis by LC-MS/MS. Different enzyme markers (Cyp3A4 substrates Midazolam, Quinidin, CYP2B6 Buproprion, CYP2D6 Dextromethorphan, CYP2C9 Tolbutamide, FMO substrate Benzydamine, UGT substrate Raloxifene) for assessing the metabolic activity of the hepatocyte cultures were used as quality control.
Log peak area ratios (test compound peak area/internal standard peak area) or concentrations were plotted against incubation time and a linear fit made to the data with emphasis upon the initial rate of compound disappearance. The slope of the fit is then used to calculate the intrinsic clearance:
Additionally, the intrinsic clearance can also be deduced by the measured rates of metabolite formation.

human M4 receptor [1] = target: T1, human M4 receptor (Homo sapiens, UniProt P08173); test: cAMP assay for M4 positive allosteric modulators (M4 PAM cAMP assay); assay type: cell-based; parameters: expressed in transfected cells; host or cells: CHO-K1; conditions: CHO-K1 cells expressing human M4, forskolin 7.5 μM + acetylcholine EC20 (0.2 nM)
T1 sequence (P08173 1-479): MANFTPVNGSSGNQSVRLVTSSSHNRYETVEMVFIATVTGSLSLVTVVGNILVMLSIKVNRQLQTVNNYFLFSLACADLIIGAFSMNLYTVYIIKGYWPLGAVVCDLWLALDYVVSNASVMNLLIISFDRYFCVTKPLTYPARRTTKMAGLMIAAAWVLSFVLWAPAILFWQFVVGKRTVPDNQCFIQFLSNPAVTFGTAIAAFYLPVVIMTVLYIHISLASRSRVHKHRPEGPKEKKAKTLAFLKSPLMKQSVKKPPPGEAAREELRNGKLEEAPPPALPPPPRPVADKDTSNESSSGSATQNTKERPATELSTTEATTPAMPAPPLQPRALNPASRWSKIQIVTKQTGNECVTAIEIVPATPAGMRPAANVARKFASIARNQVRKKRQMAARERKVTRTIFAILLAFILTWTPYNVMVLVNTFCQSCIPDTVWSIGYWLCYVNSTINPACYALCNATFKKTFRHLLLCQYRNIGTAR
Procedure, shortened: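 CHO-K1 cells stably expressing untagged human M4 pre-treated 15 min at 37 °C with compound plus IBMX, then stimulated 30 min with 7.5 μM forskolin and EC20 acetylcholine (0.2 nM). cAMP read by TR-FRET; normalised to 2 nM acetylcholine plus forskolin as 100%, sigmoidal fit giving EC50 and % efficacy.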

human M4 receptor [2] = target: T1, human M4 receptor; test: Calcium flux assay using fluorescent imaging (M4 PAM FLIPR assay); assay type: cell-based; parameters: expressed in transfected cells; host or cells: CHO (monoclonal line, clone 2); conditions: CHO cells expressing human M4+Gqi5, acetylcholine EC20
Procedure, shortened: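 CHO cells stably expressing human M4 with Gqi5 were loaded with 2 μM Fluo-4-AM for about 90 min at 37 °C, in HBSS/20 mM HEPES pH 7.3/2.5 mM probenecid. For PAM mode, compound was pre-incubated 15 min before an EC20 acetylcholine challenge; calcium read on FDSS 7000. EC50 and efficacy are relative to 3 μM acetylcholine (EC100), four-parameter fit.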

M4 receptor = target: T2, M4 receptor (Mus musculus, UniProt P32211); conditions: rodent in vivo; effects absent in M4 knockout mice; cited from earlier work
T2 construct: host or cells: living mice (behavioural test)
T2 sequence (P32211 1-479): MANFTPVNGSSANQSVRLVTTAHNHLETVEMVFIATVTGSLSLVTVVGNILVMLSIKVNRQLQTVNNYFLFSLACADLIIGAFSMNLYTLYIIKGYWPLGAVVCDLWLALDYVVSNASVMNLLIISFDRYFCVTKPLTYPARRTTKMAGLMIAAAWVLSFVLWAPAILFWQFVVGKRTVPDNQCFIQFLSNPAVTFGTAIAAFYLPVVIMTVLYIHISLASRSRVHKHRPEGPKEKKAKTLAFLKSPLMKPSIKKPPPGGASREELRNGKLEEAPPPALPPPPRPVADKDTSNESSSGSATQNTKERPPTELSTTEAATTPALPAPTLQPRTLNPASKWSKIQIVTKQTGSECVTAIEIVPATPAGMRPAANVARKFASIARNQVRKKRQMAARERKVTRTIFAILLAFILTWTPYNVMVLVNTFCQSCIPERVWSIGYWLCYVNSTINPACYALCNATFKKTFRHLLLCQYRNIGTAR

muscarinic receptors = conditions: 345 Alzheimer patients; cited from earlier work

Row | Clearance (liver cells) | EC50 (human M4 receptor [1]; Table 1) | EC50 (human M4 receptor [2]; Table 1) | Structure (SMILES) | other results
1 | 9.3 μl/min/1 * 10^6 cells | 155 nM | 387 nM | Cc1nc2c(c(C)c1Cl)CN(C(=O)[C@@H]1CCN(c3cccnc3)C1)C2 [Example 1, (3-chloro-2,4-dimethyl-5,7-dihydropyrrolo[3,4-b]pyridin-6-yl)-[(3R)-1-(3-pyridyl)pyrrolidin-3-yl]methanone] | clearance values reduced compared to clearance values of examples P1, P2 and P55 (liver cells): 50%
2 | 3.5 μl/min/1 * 10^6 cells | 79 nM | 61 nM | Cc1nc2c(c(C)c1Cl)CN(C(=O)[C@@H]1CCN(c3ccncn3)C1)C2 [Example 2, (3-chloro-2,4-dimethyl-5,7-dihydropyrrolo[3,4-b]pyridin-6-yl)-[(3R)-1-pyrimidin-4-ylpyrrolidin-3-yl]methanone] | clearance values reduced compared to clearance values of examples P1, P2 and P55 (liver cells): 50%
3 | – | 591 nM | 363 nM | Cc1cncc(N2CC[C@@H](C(=O)N3Cc4nc(C)c(Cl)c(C)c4C3)C2)n1 [Example 51, (3-chloro-2,4-dimethyl-5,7-dihydropyrrolo[3,4-b]pyridin-6-yl)-[(3R)-1-(6-methylpyrazin-2-yl)pyrrolidin-3-yl]methanone] | –
4 | – | 1160 nM | 527 nM | Cc1cc(N2CC[C@@H](C(=O)N3Cc4nc(C)c(Cl)c(C)c4C3)C2)cnn1 [Example 52, (3-chloro-2,4-dimethyl-5,7-dihydropyrrolo[3,4-b]pyridin-6-yl)-[(3R)-1-(6-methylpyridazin-4-yl)pyrrolidin-3-yl]methanone] | –
5 | – | 503 nM | 184 nM | COCc1nc2c(c(C)c1Cl)CN(C(=O)[C@@H]1CCN(c3cc(C)ncn3)C1)C2 [Example 53, [3-chloro-2-(methoxymethyl)-4-methyl-5,7-dihydropyrrolo[3,4-b]pyridin-6-yl]-[(3R)-1-(6-methylpyrimidin-4-yl)pyrrolidin-3-yl]methanone] | –
6 | – | 444 nM | 247 nM | Cc1nc2c(c(C)c1Cl)CN(C(=O)[C@@H]1CCN(c3cc(C(F)F)ncn3)C1)C2 [Example 54, (3-chloro-2,4-dimethyl-5,7-dihydropyrrolo[3,4-b]pyridin-6-yl)-[(3R)-1-[6-(difluoromethyl)pyrimidin-4-yl]pyrrolidin-3-yl]methanone] | –
7 | 2.1 μl/min/1 * 10^6 cells | 192 nM | 42 nM | COCc1nc2c(c(C)c1Cl)CN(C(=O)[C@@H]1CCN(c3ccncn3)C1)C2 [Example 55, [3-chloro-2-(methoxymethyl)-4-methyl-5,7-dihydropyrrolo[3,4-b]pyridin-6-yl]-[(3R)-1-pyrimidin-4-ylpyrrolidin-3-yl]methanone] | clearance values reduced compared to clearance values of examples P1, P2 and P55 (liver cells): 50%
8 | – | 80 nM | 486 nM | COCc1nc2c(c(C)c1Cl)CN(C(=O)[C@@H]1CCN(c3cccnc3)C1)C2 [Example 56, [3-chloro-2-(methoxymethyl)-4-methyl-5,7-dihydropyrrolo[3,4-b]pyridin-6-yl]-[(3R)-1-(3-pyridyl)pyrrolidin-3-yl]methanone] | –
9 | – | 283 nM | 99 nM | COCc1nc2c(c(C)c1Cl)CN(C(=O)[C@@H]1CCN(c3ccnc(C(F)F)c3)C1)C2 [Example 57, [3-chloro-2-(methoxymethyl)-4-methyl-5,7-dihydropyrrolo[3,4-b]pyridin-6-yl]-[(3R)-1-[2-(difluoromethyl)-4-pyridyl]pyrrolidin-3-yl]methanone] | –
10 | – | 179 nM | 74 nM | COCc1nc2c(c(C)c1Cl)CN(C(=O)[C@@H]1CCN(c3cncnc3)C1)C2 [Example 58, [3-chloro-2-(methoxymethyl)-4-methyl-5,7-dihydropyrrolo[3,4-b]pyridin-6-yl]-[(3R)-1-pyrimidin-5-ylpyrrolidin-3-yl]methanone] | –
11 | – | 881 nM | 209 nM | COCc1nc2c(c(C)c1Cl)CN(C(=O)[C@@H]1CCN(c3ccnnc3)C1)C2 [Example 59, [3-chloro-2-(methoxymethyl)-4-methyl-5,7-dihydropyrrolo[3,4-b]pyridin-6-yl]-[(3R)-1-pyridazin-4-ylpyrrolidin-3-yl]methanone] | –
12 | 20 μl/min/1 * 10^6 cells | – | – | Cc1nc2c(c(C)c1Cl)CN(C(=O)CC1CN(c3cccnc3)C1)C2 [Example P1, reference compound] | EC50 (human M4 receptor [1]; Table 2): 55 nM; EC50 (human M4 receptor [2]; Table 2): 947 nM
13 | 7.9 μl/min/1 * 10^6 cells | – | – | Cc1nc2c(c(C)c1Cl)CN(C(=O)CC1CN(c3ccncn3)C1)C2 [Example P2, reference compound] | EC50 (human M4 receptor [1]; Table 2): 53 nM; EC50 (human M4 receptor [2]; Table 2): 35 nM
14 | 5.1 μl/min/1 * 10^6 cells | – | – | COCc1nc2c(c(C)c1Cl)CN(C(=O)CC1CN(c3ccncn3)C1)C2 [Example P55, 1-[3-chloro-2-(methoxymethyl)-4-methyl-5,7-dihydropyrrolo[3,4-b]pyridin-6-yl]-2-(1-pyrimidin-4-ylazetidin-3-yl)ethanone, reference compound] | EC50 (human M4 receptor [2]; Table 2): 50 nM
15 | – | – | – | Cc1nnc2sc(C(=O)NCc3ccc(S(=O)(=O)C(F)(F)F)cc3)c(N)c2c1C [VU0467154] | effect on associative learning impairments induced by MK-801 (M4 receptor): ameliorated the associative learning impairments
16 | – | – | – | CCCCCCOc1nsnc1C1=CCCN(C)C1 [Xanomeline] | effect on cognition and psychiatric symptoms (muscarinic receptors): improve cognition and psychiatric symptoms
